The values below come from patent US8691761B2, “Somatostatin receptor 2 antagonists” (priority 2006, dated 2014).

For one series, the target named is T1, human sst2A receptor (Homo sapiens, UniProt P30874).
T1 construct: expressed in transfected cells; host or cells: HEK293 (HEK-sst2)
Description: Immunofluorescence-based sst2 internalization assay in HEK-sst2 cells. Format: cell-based. As to conditions: n ≧ 2. On the procedure:
Immunofluorescence-based sst2 Internalization Assay. Immunofluorescence microscopy-based internalization assay for sst2 was performed with HEK-sst2 using the sst2-specific antibody R2-88 as described elsewhere herein. HEK-sst2 cells were treated either with vehicle alone, the sst2 agonist [Tyr^3]-octreotide at a concentration of 100 nM, [Tyr^3]-octreotide at a concentration of 100 nM in the presence of an excess of the SRIF analogues to be tested (100 times the concentration of [Tyr^3]-octreotide), or with the SRIF analogues to be tested alone at a concentration of 10 μM, and then processed for immunofluorescence microscopy as described previously.

The subject of series [1] is HEK-sst2 tumors. Briefly: In vivo biodistribution of radiolabeled peptides in nude mice bearing HEK-sst2 tumors. As to conditions: for tumor to kidney ratio (in words): mouse, in vivo.
Description: (§1) The following protocol was used to determine biodistribution
(§2) Confirmation that the transfected tumors were indeed expressing solely sst2 was obtained in resected tumor samples tested in vitro with somatostatin receptor autoradiography using subtype selective ligands.
(§3) The biodistribution of was studied at 4 h or 24 h after injection. The organs of interest were collected, blotted dry, weighed, their radioactivity measured and the percentage of injected activity per gram (% IA/g) calculated.
Another series has as its target sst2 (Homo sapiens, UniProt P30874). Description: Calcium release assay in HEK-sst2 cells (Fluo-4NW). Format: cell-based. Further details: expressed in transfected cells; host or cells: HEK293 (HEK-sst2). As to conditions: n ≧ 2. On the procedure: Calcium release assay. Intracellular calcium release was measured in HEK-sst2 using the Fluo-4NW Calcium Assay kit as described previously (Magrys, et al. “The role of anti-alpha-enolase autoantibodies in pathogenicity of autoimmune-mediated retinopathy.” J. Clin. Immunol. 2007, 27, 181-192; Michel et al. “The Nef protein of human immunodeficiency virus is a broad-spectrum modulator of chemokine receptor cell surface levels that acts independently of classical motifs for receptor endocytosis and Galphai signaling.” Mol. Biol. Cell. 2006, 17, 3578-3590). In brief, HEK-sst2 cells were seeded (25,000 cells per well) in poly-D-lysine (20 μg/mL) coated 96 well plates and cultured for 1 day at 37° C. and 5% CO2 in culture medium. At the day of the experiment, the cells were washed with assay buffer (1×HBSS, 20 mM HEPES) containing 2.5 mM probenecid, and then loaded with 100 μL/well Fluo-4NW dye in assay buffer containing 2.5 mM probenecid for 30 min at 37° C. and 5% CO2 and then for further 30 min at room temperature. To measure the intracellular calcium mobilization after stimulation with the SRIF analogues to be tested, the dye-loaded cells were transferred to a SpectraMax M2^e (Molecular Devices, Sunnyvale, Calif.). Intracellular calcium mobilization was recorded in a kinetic for 60 sec at room temperature monitoring fluorescence emission at 520 nm (with λex=485 nm) in the presence of the analogues at the concentrations indicated. Maximum fluorescence (Fmax) was measured after the addition of 25 μM ionomycin. Baseline (control) measurements were taken for dye-loaded, untreated cells. Data are shown as percentage of Fmax (% Fmax) as reported previously. (Magrys, et al. J. Clin. Immunol. 2007, 27, 181-192; Michel et al. Mol. Biol. Cell. 2006, 17, 3578-3590). All experiments were repeated at least three times in triplicate.

For series [2], the system named is HEK-sst2 tumors. As to conditions: mouse, in vivo.
Description: as §1, §2, §3
The target of another series is T2, hSSTR2 (Homo sapiens, UniProt P30874).
T2 construct: expressed in transfected cells; host or cells: CHO-K1 or CCL39 cells
Briefly: Receptor autoradiography, displacement of 125I-[Leu8,D-Trp22,Tyr25]-SRIF-28 from membrane pellet sections. It is filed as binding. (In a radioligand displacement assay an active substance lowers the binding of a labelled ligand.)

In the next series the target is T3, hSSTR4 (Homo sapiens, UniProt P31391).
T3 construct: expressed in transfected cells; host or cells: CHO-K1 or CCL39 cells
Described as above. It is filed as binding.

In another series the target is T4, hSSTR1 (Homo sapiens, UniProt P30872).
T4 construct: expressed in transfected cells; host or cells: CHO-K1 or CCL39 cells
The series is described as above. Format: binding.

A further series has as its target T5, hSSTR5 (Homo sapiens, UniProt P35346).
T5 construct: expressed in transfected cells; host or cells: CHO-K1 or CCL39 cells
Described as above. It is filed as binding.

A further series addresses T6, hSSTR3 (Homo sapiens, UniProt P32745).
T6 construct: expressed in transfected cells; host or cells: CHO-K1 or CCL39 cells
Described as above. Format: binding.

A further series is described as follows: in vivo. As to conditions: female, athymic nude, mouse, iv, total radioactivity, biodistribution.
[3] abbreviates: Table 1, inhibition of radioligand binding to cloned human receptor, read-out: IC50 hSSTR4.
Where [4] appears, read: Table 3, mean ± SEM when N ≧ 3, read-out: sst4 binding affinity (IC50).
Where [5] appears, read: Table 1, inhibition of radioligand binding to cloned human receptor, read-out: IC50 hSSTR2.
The mark [6] stands for this setting: Table 3, mean ± SEM when N ≧ 3, read-out: sst2 binding affinity (IC50).
Setting [7] is: Table 1, inhibition of radioligand binding to cloned human receptor, read-out: IC50 hSSTR1.
Where [8] appears, read: Table 3, mean ± SEM when N ≧ 3, read-out: sst1 binding affinity (IC50).
Setting [9] is: Table 1, inhibition of radioligand binding to cloned human receptor, read-out: IC50 hSSTR5.
Setting [10] is: Table 3, mean ± SEM when N ≧ 3, read-out: sst5 binding affinity (IC50).
[11] abbreviates: Table 1, inhibition of radioligand binding to cloned human receptor, read-out: IC50 hSSTR3.
The mark [12] stands for this setting: Table 3, mean ± SEM when N ≧ 3, read-out: sst3 binding affinity (IC50).

Several values for one entry are separate records, joined by “and”; a condition that tells them apart may be missing. Equal values may be shown once. Entries after “also recorded” stand apart in the source; their conditions may differ. Read-outs that look alike come from different tables or passages of the source. Bridge positions count the residues as written; N and C are the ends. Square brackets hold non-standard residues; d marks the D form. Peptide text beside a SMILES is read from it. * marks the point of attachment. ξ: configuration not given here. DOTA = O=C(O)CN1CCN(CC(=O)O)CCN(CC(=O)*)CCN(CC(=O)O)CC1; Phe(4-NO2) = N[C@@H](Cc1ccc([N+](=O)[O-])cc1)C(=O)O; dPhe(4-NHCONH2) = NC(=O)Nc1ccc(C[C@@H](N)C(=O)O)cc1; Dihydroorotyl(S) = O=C1C[C@@H](C(=O)*)NC(=O)N1; Phe(4-Cl) = N[C@@H](Cc1ccc(Cl)cc1)C(=O)O; ξDihydroorotoyl = O=C1CC(C(=O)*)NC(=O)N1; Phe(4-NH2) = Nc1ccc(C[C@H](N)C(=O)O)cc1; 2Nal = N[C@@H](Cc1ccc2ccccc2c1)C(=O)O; ξPhe(4-NH2) = Nc1ccc(CC(N)C(=O)O)cc1 A value given as a limit tells only on which side of the number the result lay.

T5 sequence (P35346 whole entry): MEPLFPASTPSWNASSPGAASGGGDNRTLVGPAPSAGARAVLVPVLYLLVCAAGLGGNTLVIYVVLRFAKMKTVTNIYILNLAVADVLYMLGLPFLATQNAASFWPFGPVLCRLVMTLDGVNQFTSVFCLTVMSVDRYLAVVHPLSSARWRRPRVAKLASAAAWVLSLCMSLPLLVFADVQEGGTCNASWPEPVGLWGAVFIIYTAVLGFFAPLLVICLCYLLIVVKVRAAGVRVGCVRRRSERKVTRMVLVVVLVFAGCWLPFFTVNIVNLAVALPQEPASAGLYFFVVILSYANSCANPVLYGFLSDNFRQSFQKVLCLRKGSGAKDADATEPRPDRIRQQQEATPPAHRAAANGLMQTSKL
T2 sequence (P30874 whole entry): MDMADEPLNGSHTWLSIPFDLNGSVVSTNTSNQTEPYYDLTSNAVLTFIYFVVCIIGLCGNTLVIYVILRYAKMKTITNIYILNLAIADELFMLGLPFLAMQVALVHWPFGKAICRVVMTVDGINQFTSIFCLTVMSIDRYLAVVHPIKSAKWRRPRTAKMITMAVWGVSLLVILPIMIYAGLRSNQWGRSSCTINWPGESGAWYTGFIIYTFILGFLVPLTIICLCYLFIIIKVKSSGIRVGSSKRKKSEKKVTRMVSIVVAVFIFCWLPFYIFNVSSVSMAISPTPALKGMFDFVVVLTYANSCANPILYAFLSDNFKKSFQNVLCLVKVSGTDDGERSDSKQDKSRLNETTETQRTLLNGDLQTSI
Chain of sst2 (P30874 whole entry): as above
T1 sequence (P30874 whole entry): as above
T6 sequence (P32745 whole entry): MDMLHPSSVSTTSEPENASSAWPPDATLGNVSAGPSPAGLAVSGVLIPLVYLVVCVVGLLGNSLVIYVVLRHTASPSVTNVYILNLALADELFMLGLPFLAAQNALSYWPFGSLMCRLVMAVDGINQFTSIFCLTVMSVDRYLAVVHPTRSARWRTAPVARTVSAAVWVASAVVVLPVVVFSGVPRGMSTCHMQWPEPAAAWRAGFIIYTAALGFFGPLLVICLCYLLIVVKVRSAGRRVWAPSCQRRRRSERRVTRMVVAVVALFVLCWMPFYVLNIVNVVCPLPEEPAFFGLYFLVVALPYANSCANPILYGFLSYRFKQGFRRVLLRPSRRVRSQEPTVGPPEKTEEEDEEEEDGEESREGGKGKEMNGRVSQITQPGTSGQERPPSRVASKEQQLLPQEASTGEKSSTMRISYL
T3 sequence (P31391 whole entry): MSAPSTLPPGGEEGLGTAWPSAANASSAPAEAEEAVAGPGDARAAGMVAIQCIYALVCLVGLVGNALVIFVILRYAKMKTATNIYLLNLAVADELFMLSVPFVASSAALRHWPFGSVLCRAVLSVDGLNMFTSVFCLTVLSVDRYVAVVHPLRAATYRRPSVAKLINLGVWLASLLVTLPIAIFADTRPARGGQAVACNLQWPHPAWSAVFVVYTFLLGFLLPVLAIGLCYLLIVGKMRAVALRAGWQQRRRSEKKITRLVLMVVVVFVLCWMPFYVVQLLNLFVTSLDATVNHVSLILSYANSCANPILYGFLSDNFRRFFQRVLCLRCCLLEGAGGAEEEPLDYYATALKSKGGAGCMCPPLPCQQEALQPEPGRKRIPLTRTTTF
T4 sequence (P30872 whole entry): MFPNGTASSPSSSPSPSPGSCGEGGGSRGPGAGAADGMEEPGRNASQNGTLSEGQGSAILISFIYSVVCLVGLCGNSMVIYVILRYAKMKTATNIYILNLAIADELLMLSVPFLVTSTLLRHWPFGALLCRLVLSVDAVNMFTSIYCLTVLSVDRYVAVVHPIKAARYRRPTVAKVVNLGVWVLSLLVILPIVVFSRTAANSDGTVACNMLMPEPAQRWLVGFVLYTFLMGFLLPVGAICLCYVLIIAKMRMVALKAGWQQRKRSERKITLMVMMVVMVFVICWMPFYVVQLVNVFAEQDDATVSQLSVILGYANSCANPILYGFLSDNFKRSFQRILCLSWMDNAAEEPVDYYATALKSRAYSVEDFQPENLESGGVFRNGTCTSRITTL

In the case of `C[C@@H](O)[C@@H]1NC(=O)[C@H](CCCCN)NC(=O)[C@@H](Cc2ccc(NC(N)=O)cc2)NC(=O)C(Cc2ccc(NC(=O)C3CC(=O)NC(=O)N3)cc2)NC(=O)[C@H](NC(=O)[C@H](Cc2ccc(Cl)cc2)NC(=O)CN2CCN(CC(=O)O)CCN(CC(=O)O)CCN(CC(=O)O)CC2)CSSC[C@@H](C(=O)N[C@@H](Cc2ccc3ccccc3c2)C(N)=O)NC1=O` (stereo partly drawn) [Peptide No. 30, DOTA-Cpa-c[DCys-Aph(Hor)-DAph(Cbm)-Lys-Thr-Cys]-2Nal-NH2] ({DOTA}-[Phe(4-Cl)][dC][ξPhe(4-NH2)](ξDihydroorotoyl)[dPhe(4-NHCONH2)]KTC[2Nal]-NH2; disulfide 2-7), the “sst2-internalization tested in vitro in HEK-sst2 cells (function)” value (shortened to “sst2-internalization tested in vitro”) on human sst2A receptor is “Antagonist”. The “tumor to kidney ratio (in words)” value with HEK-sst2 tumors [1] is “excellent tumor to kidney ratio”. The “Calcium release tested in vitro in HEK-sst2 cells (function)” value (from here on “Calcium release tested in vitro”) on sst2 was “Antagonist”.

`C[C@@H](O)[C@@H]1NC(=O)[C@H](CCCCN)NC(=O)[C@@H](Cc2ccc(NC(N)=O)cc2)NC(=O)C(Cc2ccc(NC(=O)C3CC(=O)NC(=O)N3)cc2)NC(=O)[C@H](NC(=O)[C@H](Cc2ccc(Cl)cc2)NC(=O)CN2CCN(CC(=O)O)CCN(CC(=O)O)CCN(CC(=O)O)CC2)CSSC[C@@H](C(=O)N[C@H](Cc2ccc(O)cc2)C(N)=O)NC1=O` (stereo partly drawn) [Peptide No. 31, DOTA-Cpa-c[DCys-Aph(Hor)-DAph(Cbm)-Lys-Thr-Cys]-DTyr-NH2] ({DOTA}-[Phe(4-Cl)][dC][ξPhe(4-NH2)](ξDihydroorotoyl)[dPhe(4-NHCONH2)]KTC[dY]-NH2; disulfide 2-7): the “sst2-internalization tested in vitro” value on human sst2A receptor is “antagonistic property; also recorded: Antagonist”. Further, in the series on HEK-sst2 tumors [2], the “tumor to kidney ratio (in words)” value is listed as “excellent tumor to kidney ratio”. The “sst2 binding affinity relative to SRIF-28” value on hSSTR2 is “three to four-fold greater”. For the same molecule, the “Calcium release tested in vitro” value on sst2 is recorded as “Antagonist”.

Turning to `C[C@@H](O)[C@@H]1NC(=O)[C@H](CCCCN)NC(=O)[C@@H](Cc2ccc(NC(N)=O)cc2)NC(=O)[C@H](Cc2ccc(O)cc2)NC(=O)[C@H](NC(=O)[C@H](Cc2ccc([N+](=O)[O-])cc2)NC(=O)CN2CCN(CC(=O)O)CCN(CC(=O)O)CCN(CC(=O)O)CC2)CSSC[C@@H](C(=O)N[C@@H](Cc2ccc3ccccc3c2)C(N)=O)NC1=O` [Peptide No. 5, DOTA-pNO2Phe-c[DCys-Tyr-DAph(Cbm)-Lys-Thr-Cys]-2Nal-NH2] ({DOTA}-[Phe(4-NO2)][dC]Y[dPhe(4-NHCONH2)]KTC[2Nal]-NH2; disulfide 2-7), the “sst2-internalization tested in vitro” value at human sst2A receptor is listed as “Antagonist”. For the same molecule, the “tumor to kidney ratio (in words)” value in the series on HEK-sst2 tumors [1] is “excellent tumor to kidney ratio”. The IC50 at hSSTR4 (setting [3]) was above 1 µM; at hSSTR4 (setting [4]), above 1 µM; on hSSTR2 (setting [5]) it was 0.0015 µM; at hSSTR2 (setting [6]) it was 0.0013 µM; at hSSTR1 (setting [7]), above 1 µM; at hSSTR1 (setting [8]) it was above 1 µM. Also, the IC50 on hSSTR5 (setting [9]), at hSSTR5 (setting [10]), at hSSTR3 (setting [11]) and on hSSTR3 (setting [12]) was above 1 µM in each case. Besides, the “Calcium release tested in vitro” value on sst2 was “Antagonist”.

As to `C[C@@H](O)[C@@H]1NC(=O)[C@H](CCCCN)NC(=O)[C@@H](Cc2ccc(NC(N)=O)cc2)NC(=O)[C@H](Cc2ccc(NC(=O)[C@@H]3CC(=O)NC(=O)N3)cc2)NC(=O)[C@H](NC(=O)[C@H](Cc2ccc(Cl)cc2)NC(=O)CN2CCN(CC(=O)O)CCN(CC(=O)O)CCN(CC(=O)O)CC2)CSSC[C@@H](C(N)=O)NC1=O` [^111In-labelled Peptide No. 33, metal not drawn] ({DOTA}-[Phe(4-Cl)][dC][Phe(4-NH2)](Dihydroorotyl(S))[dPhe(4-NHCONH2)]KTC-NH2; disulfide 2-7), in the series on HEK-sst2 tumors [2] (female, athymic nude, iv, 4 h), the “biodistribution, intestine” value was 0.09 % IA/g. For the same molecule, the “biodistribution, kidney” value in the series with HEK-sst2 tumors [2] (female, athymic nude, iv, 4 h) is 10.3 % IA/g. Besides, the “biodistribution, lung” value with HEK-sst2 tumors [2] (female, athymic nude, iv, 4 h) stood at 0.21 % IA/g. Besides, the “biodistribution, spleen” value with HEK-sst2 tumors [2] (female, athymic nude, iv, 4 h) was 0.2 % IA/g. Also, the “biodistribution, stomach” value in the series with HEK-sst2 tumors [2] (female, athymic nude, iv, 4 h) was determined as 0.12 % IA/g. The tissue uptake at 4 h amounted to 0.23 %ID/g in the series “in vivo” (adrenal); 0.12 %ID/g in the series “in vivo” (blood); 0.04 %ID/g in “in vivo” (bone); 0.05 %ID/g in the series “in vivo” (heart); 0.32 %ID/g in “in vivo” (liver); 0.02 %ID/g in “in vivo” (muscle). The tissue uptake at 4 h in “in vivo” (pancreas) was 0.05 %ID/g; in “in vivo” (pituitary), 0.14 %ID/g; in the series “in vivo” (sst2 tumor) it was 0.22 %ID/g; in the series “in vivo” (sst3 tumor), 0.14 %ID/g. Besides, in the series with HEK-sst2 tumors [1] (1000- or 2000-fold excess of unlabelled compound), the “effect of excess unlabelled compound on binding in vivo” value is “inhibited binding”.

With `C[C@@H](O)[C@@H]1NC(=O)[C@H](CCCCN)NC(=O)[C@@H](Cc2ccc(NC(N)=O)cc2)NC(=O)[C@H](Cc2ccc(O)cc2)NC(=O)[C@H](NC(=O)[C@H](Cc2ccc([N+](=O)[O-])cc2)NC(=O)CN2CCN(CC(=O)O)CCN(CC(=O)O)CCN(CC(=O)O)CC2)CSSC[C@@H](C(=O)N[C@H](Cc2ccc(O)cc2)C(N)=O)NC1=O` [Peptide No. 3, DOTA-pNO2Phe-c[DCys-Tyr-DAph(Cbm)-Lys-Thr-Cys]-DTyr-NH2] ({DOTA}-[Phe(4-NO2)][dC]Y[dPhe(4-NHCONH2)]KTC[dY]-NH2; disulfide 2-7), the “sst2-internalization tested in vitro” value on human sst2A receptor was “antagonistic property; also recorded: Antagonist”. Also, in the series with HEK-sst2 tumors [2], the “tumor to kidney ratio (in words)” value was “excellent tumor to kidney ratio”. For the same molecule, the IC50 at hSSTR4 (setting [3]) is above 1 µM; at hSSTR4 (setting [4]), above 1 µM; at hSSTR2 (setting [5]) it was 0.00053 ± 6e-05 µM; on hSSTR2 (setting [6]), 0.00075 µM and < 0.001 µM; on hSSTR1 (setting [7]), above 1 µM; on hSSTR1 (setting [8]), above 1 µM. Further, the IC50 at hSSTR5 (setting [9]), at hSSTR5 (setting [10]), at hSSTR3 (setting [11]) and on hSSTR3 (setting [12]) was above 1 µM in each case. Moreover, on hSSTR2, the “sst2 binding affinity relative to SRIF-28” value is given as “three to four-fold greater”. The “Calcium release tested in vitro” value on sst2 was “Antagonist”.

In general, IC50 refers to the concentration that inhibits the measured activity by half. By tissue uptake is commonly meant the percentage of the injected dose found per gram of tissue.
